From patent US20250186423A1, “METHODS OF TREATING CANCER AND OTHER CONDITIONS WITH A MU OPIOID RECEPTOR ANTAGONIST” (priority 2022, published 2025)

Experiments:
[1] = tested on: Mouse pancreatic tumor cells (PAN02 cells); test: Syngeneic mouse pancreatic cancer model; type: in vivo, mice (C57BL6)
Method: Mouse pancreatic tumor cells (PAN02 cells), maintained in RPMI 1640 media supplemented with 10% FBS and 2 mmol/L L-glutamine, were amplified in vitro prior to implantation. On the day of injection, cells were harvested, counted including a trypan blue viability dye (cut-off 80%), and resuspended in PBS at the appropriate concentration. The cells (5×10^6 in 200 μL PBS) were injected subcutaneously in the right flank of Female mice (C57BL6), 5 weeks of age (18-22 gm body weight) within 30 minutes after harvesting. After 9 days of tumor growth, mice were randomized into treatment groups at 10 animals/group. Treatments included vehicle (PBS), axelopran given as 1 mg/kg, p.o. daily, mouse anti-PD-1 given as 12.5 mg/kg i.p., 3x/week and axelopran plus mouse anti-PD-1. Animals were weighed thrice weekly and tumor growth measured using callipers as described previously for the colon cancer experiments.

[2] = tested on: MDA-MB-231 tumor cell line; test: Breast cancer tumor progression in the CAM assay; type: in vivo, chicken
Method: The chicken egg chorioallantoic membrane assay (FIG. 3B) allows for the study of tumor progression of injected tumor cells in the presence of active endogenous immune surveillance, but again in the absence of an active gut microbiome.
Breast cancer cell tumor progression was assessed in the chicken egg, chorioallantoic membrane assay. The experimental timing is shown below in FIG. 9. Fertilized chicken eggs were incubated for 9 days. The MDA-MB-231 tumor cell line was cultivated in D-MEM medium supplemented with 10% FBS and 1% penicillin/streptomycin. On day E9, cells were detached with trypsin, washed with complete medium and suspended in graft medium. An inoculum of 1×10^6 cells was added onto the CAM of each egg (E9) and then eggs were randomized into groups. Tumor cells (breast cancer MDA-MB231 cells (10^6)) were then seeded on the upper CAM and further incubated for 3 three days. Test agents were then added to the same site at selected concentrations. Following five days of further incubation the growing tumor was excised, freed of CAM tissue, and weighed.
For this testing, the chicken eggs were treated with: axelopran; pembrolizumab (Pembro); axelopran+pembrolizumab; bevacizumab (Beva); axelopran+bevacizumab; pembrolizumab+bevacizumab; and axelopran+pembrolizumab+bevacizumab. Axelopran was used at dose of 1.0 mg/kg; pembrolizumab was used at a dose of 2.5 mg/kg; and bevacizumab was used at a dose of 4 mg/kg. The results of this testing are shown in FIG. 10A, 10B, 11 and Table 2-2.

[3] = tested on: Human umbilical vein endothelial cells (HUVEC); test: HUVEC cell tube formation; type: cell-based; conditions: 0-1000 nM, 18 hours, absence of exogenous opioids
Method: (§1) Two independent model systems were used to explore the role of MOR and endogenous opioids on angiogenesis. Human umbilical vein endothelial cells (HUVEC) in culture initiate angiogenesis through tube formation when cultured on an appropriate extracellular matrix. In a living system, the chicken egg chorioallantoic membrane assay (CAM) allows direct visualization of new blood vessel formation.
Specifically, the HUVEC cell tube formation was assessed in the presence of various doses (0-1000 nM) of three different Mu opioid receptor antagonists (axelopran, naloxegol, and methylnaltrexone (MNTX)). For this testing, the HUVEC cells were exposed to the various MOR antagonist concentrations and incubated under the following conditions: Briefly, 50 μL of Matrigel in 96 well plates was loaded to make one layer of extracellular matrix. The plate was kept for 1 hour at 37° C. HUVEC cells were seeded on top of Matrigel (0.02×10^6 cells/well) and waited for 4 h to form tube formation. […] Once tubes formed, cells were treated with increasing amounts of the test compounds (axelopran, naloxegol, and MNTX) and incubated for 18 hours. Cells were stained with Calcein AM and images were captured. The data analysis was performed using NIH imageJ software. Tube length was measure and data was plotted using prism software.

[4] = tested on: blood vessels reaching MDA-MB-231 tumor on the CAM; test: Chicken egg chorioallantoic membrane (CAM) tumor angiogenesis, blood vessel count; type: in vivo; conditions: 0.1, 0.5, 1.0 mg/kg; absence of exogenous opioids
Method: as §1
Furthermore, a chicken egg chorioallantoic membrane assay was conducted to determine blood vessel formation in the presence of increasing MOR antagonist (axelopran) concentrations (0, 0.1, 0.5, 1.0 mg/kg). Docetaxel was used as a control. For the testing CAM membranes were incubated in the presence of the MOR antagonist or docetaxel under the following conditions: Fertilized White Leghorn eggs were incubated at 37.5° C. with 50% relative humidity for 9 days. At that moment (E9), the CAM was dropped down by drilling a small hole through the eggshell into the air sac, and a 1 cm window was cut in the eggshell above the CAM. At least 20 eggs (depending on embryo surviving rate after 9 days of development, there could be more than 20 eggs per group) were grafted for each group. […] The number of blood vessels that reach the tumor and feed the tumor proliferation were counted in triplicate to evaluate tumor angiogenesis. […]

M-001 melanoma cells = test: Melanoma tumor progression in Zebra fish larvae; type: in vivo, zebrafish; conditions: Axelopran 10000 nM, 72 hours of growth
[5] = tested on: chicken CD3, MMD and CD244; test: Immune cell infiltration into CAM breast cancer tumors (RT-qPCR); type: in vivo; conditions: axelopran used in the presence of bevacizumab and pembrolizumab
Method: Infiltration of host immune cells into the tumor environment is required for host reduction of tumor progression. Among the tumors collected at E18, after tumor weighing, 10 tumors per group (n=10) were used for RNA extraction, in 6 groups (Gr. 1, 2, 3, 4, 7, and 8). After that, extracted RNA was analyzed by RT-qPCR with specific primers for chicken CD3, MMD and CD244 sequences. For all points done in qPCR, expression of human GAPDH was also analyzed, as reference gene expression, and used to normalize immune biomarker expression between samples. Calculation of Cq for each sample, mean Cq and relative amounts of immune cells for each group were directly managed by the Bio- Rad CFX Maestro software (see FIG. 11).
The infiltration of chicken CD3^+, CD244^+, and MMD^+ immune cells into breast cancer tumors grown on the upper CAM in the presence of axelopran, pembrolizumab, bevacizumab and combinations are shown in FIG. 11.

[6] = absence of exogenous opioids, breast cancer

NC(=O)c1cccc(C2CC3CCC(C2)N3CCN(CC2CCCCC2)C(=O)[C@@H](O)CO)c1 (stereo partly drawn) [axelopran, 3-[(1R,3r,5S)-8-(2-{(cyclohexylmethyl)[(2S)-2,3-dihydroxypropanoyl]amino}ethyl)-8-azabicyclo[3.2.1]octan-3-yl]benzamide]
distribution of tumor volumes ([1]; compared to animals not treated with axelopran): lower and more uniform
inhibition of tumor progression ([1]; day 23, axelopran 1 mg/kg p.o. daily, mouse anti-PD-1 12.5 mg/kg i.p. 3x/week): most prominent
Breast cancer tumor progression index (tumor size × metastasis), Mean ([2]; 5 days of growth in the upper CAM, axelopran 1.0 mg/kg, pembrolizumab 2.5 mg/kg, bevacizumab 4 mg/kg): 0.63 fraction of negative control
interaction of axelopran activity with anti-PD-1 treatment ([2]; absence of a microbiome, breast cancer): additive
metastasis [2, 6]: inhibits metastasis
tumor growth [2, 6]: inhibits tumor growth
angiogenesis (HUVEC cell tube formation) [3]: inhibit angiogenesis
angiogenesis (blood vessel formation, CAM) [4]: inhibit angiogenesis
Melanoma tumor progression index (tumor size × metastasis), Mean (M-001 melanoma cells): 2.41
infiltration of CD3+ lymphocytes, CD244+ natural killer cells and MMD+ macrophages into the tumor tissue [5]: synergistically enhanced the infiltration
